The series is described as follows: Safety and tolerability of IN nalmefene, adverse events (Example 13). The format is in vivo, human (healthy volunteers). The text has this:
Safety: The Investigator evaluated safety using the following assessments: reported or observed AEs, clinical laboratory evaluations, vital sign measurements, physical examinations, ECGs (including telemetry), nasal irritation determined from nasal passage examinations, and NRS to determine acute nasal pain.

Setting [1] is: Treatment B (6 mg, 1 spray in each nostril).
Setting [2] is: Treatment C (6 mg, 2 sprays in 1 nostril).

SMILES strings stand for the structures.

Take `C=C1CC[C@@]2(O)[C@H]3Cc4ccc(O)c5c4[C@@]2(CCN3CC2CC2)[C@H]1O5` [Nalmefene, 17-cyclopropylmethyl-4,5α-epoxy-6-methylenemorphinan-3,14-diol]: the Tolerability result (3 mg and 6 mg dose, fasted healthy subjects) was “well-tolerated”. For the same molecule, where the note is “Treatment A”, the “Nasal congestion, instances” value worked out at 1; the “Nasal discomfort, instances” value amounted to 1; the “Nausea, instances” value stood at 1. Where the note is “Treatment A (3 mg)”, the “Number of AEs reported” value is on record as 20 and the “Subjects reporting AEs” value amounted to 43.5%. In addition, where the note is “Treatment B”, the “Nasal congestion, instances” value was 2 and the “Nausea, instances” value was 5. For the same molecule, under setting [1], the “Number of AEs reported” value is on record as 24 and the “Subjects reporting AEs” value amounted to 60.9%. Where the note is “Treatment C”, the “Nasal congestion, instances” value was 4; the “Nasal discomfort, instances” value was determined as 3; the “Nausea, instances” value amounted to 1. Further, under setting [2], the “Number of AEs reported” value was 24 and the “Subjects reporting AEs” value was found to be 58.3%. Further, where the note is “all treatments”, the “Serious AEs or AEs leading to withdrawal or death” value was “no serious AEs” and the “Severity of TEAEs” value is recorded as “mild”.

Source of the values: patent US12290596B2, “Compositions and methods for the treatment of opioid overdose” (priority 2021, dated 2025).
